Test results: US12319672B2, “Alpha-D-galactopyranoside derivatives” (Idorsia Pharmaceuticals Ltd, priority 2019, dated 2025)

Columns and labels:
human Gal-3 (hGal-3) = human Gal-3 (hGal-3) (Homo sapiens (Human), UniProt P17931); assay: Competitive binding assay: binding of biotinylated hGal-3 to microplate-adsorbed asialofetuin (ASF); conditions: Activity on hGal-3; mean values of several measurements
Procedure, shortened: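 Spectrophotometric readout (streptavidin-peroxidase, ABTS) of biotinylated galectin retained on ASF-coated wells. Biotinylated hGal-1 or hGal-3, 300-1000 ng/mL, co-incubated with test compound 3 h at 4° C, then washed. Mean IC50 from repeat runs.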

human Gal-1 (hGal-1) = assay: Competitive binding assay: binding of biotinylated hGal-1 to microplate-adsorbed asialofetuin (ASF); conditions: Activities on hGal-1; mean values of several measurements
Procedure, shortened: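 For hGal-1, a variant with all six cysteines replaced by serines is preferred. Either galectin, biotinylated at 300-1000 ng/mL, competes with compound for microplate-bound ASF over 3 h at 4° C; peroxidase/ABTS detection gives IC50, averaged.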

Chain of human Gal-3 (hGal-3) (P17931 whole entry): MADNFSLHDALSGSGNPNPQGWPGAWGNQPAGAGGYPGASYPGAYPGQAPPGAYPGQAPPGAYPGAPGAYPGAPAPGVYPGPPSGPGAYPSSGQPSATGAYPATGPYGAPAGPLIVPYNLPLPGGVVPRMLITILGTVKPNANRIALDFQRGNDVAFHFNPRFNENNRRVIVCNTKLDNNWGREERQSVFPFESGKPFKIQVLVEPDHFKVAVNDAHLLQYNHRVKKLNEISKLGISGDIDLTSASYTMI
Chain of human Gal-1 (hGal-1) (P09382 2-135 limits assumed): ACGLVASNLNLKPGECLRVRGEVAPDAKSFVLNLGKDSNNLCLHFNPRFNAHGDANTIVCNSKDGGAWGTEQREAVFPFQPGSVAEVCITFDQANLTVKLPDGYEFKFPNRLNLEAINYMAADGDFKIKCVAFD

SMILES	IC50 (human Gal-3 (hGal-3))	IC50 (human Gal-1 (hGal-1))
CC(C)(C)c1cc(C[C@H]2O[C@H](CO)[C@H](O)[C@H](n3cc(-c4cc(F)c(F)c(F)c4)nn3)[C@H]2OCC(=O)N2CC[C@H](O)C2)no1 [Example 2.42, 2-(((2R,3R,4S,5R,6R)-2-((5-(tert-butyl)isoxazol-3-yl)methyl)-5-hydroxy-6-(hydroxymethyl)-4-(4-(3,4,5-trifluorophenyl)-1H-1,2,3-triazol-1-yl)tetrahydro-2H-pyran-3-yl)oxy)-1-((S)-3-hydroxypyrrolidin-1-yl)ethan-1-one]	180 nM	3270 nM
C#Cc1ccc(-c2cn([C@H]3[C@@H](O)[C@@H](CO)O[C@H](Cc4cc(C(C)(C)C)on4)[C@@H]3OC)nn2)c(F)c1F [Example 2.47, (2R,3R,4S,5R,6R)-6-((5-(tert-butyl)isoxazol-3-yl)methyl)-4-(4-(4-ethynyl-2,3-difluorophenyl)-1H-1,2,3-triazol-1-yl)-2-(hydroxymethyl)-5-methoxytetrahydro-2H-pyran-3-ol]	230 nM	4400 nM
CC(C)(C)c1cc(C[C@H]2O[C@H](CO)[C@H](O)[C@H](n3cc(-c4cc(F)c(F)c(F)c4)nn3)[C@H]2O)on1 [Example 2.48, (2R,3R,4R,5R,6R)-2-((3-(tert-butyl)isoxazol-5-yl)methyl)-6-(hydroxymethyl)-4-(4-(3,4,5-trifluorophenyl)-1H-1,2,3-triazol-1-yl)tetrahydro-2H-pyran-3,5-diol]	98 nM	1040 nM
Cc1ccc(-c2cn([C@H]3[C@@H](O)[C@@H](CO)O[C@H](Cc4cc(C(C)(C)C)no4)[C@@H]3O)nn2)c(F)c1F [Example 2.50, (2R,3R,4R,5R,6R)-2-((3-(tert-butyl)isoxazol-5-yl)methyl)-4-(4-(2,3-difluoro-4-methylphenyl)-1H-1,2,3-triazol-1-yl)-6-(hydroxymethyl)tetrahydro-2H-pyran-3,5-diol]	130 nM	6810 nM
Cc1ccc(-c2cn([C@H]3[C@@H](O)[C@@H](CO)O[C@H](Cc4cc(C(C)(C)C)no4)[C@@H]3OCc3nccn3C)nn2)c(F)c1F [Example 2.52, (2R,3R,4S,5R,6R)-6-((3-(tert-butyl)isoxazol-5-yl)methyl)-4-(4-(2,3-difluoro-4-methylphenyl)-1H-1,2,3-triazol-1-yl)-2-(hydroxymethyl)-5-((1-methyl-1H-imidazol-2-yl)methoxy)tetrahydro-2H-pyran-3-ol]	78 nM	5130 nM
Cc1ccc(-c2cn([C@H]3[C@@H](O)[C@@H](CO)O[C@H](Cc4cc(C(C)(C)C)no4)[C@@H]3OCc3cnco3)nn2)c(F)c1F [Example 2.55, (2R,3R,4S,5R,6R)-6-((3-(tert-butyl)isoxazol-5-yl)methyl)-4-(4-(2,3-difluoro-4-methylphenyl)-1H-1,2,3-triazol-1-yl)-2-(hydroxymethyl)-5-(oxazol-5-ylmethoxy)tetrahydro-2H-pyran-3-ol]	120 nM	2720 nM
CO[C@@H]1[C@@H](n2cc(-c3cc(F)c(F)c(F)c3)nn2)[C@@H](O)[C@@H](CO)O[C@@H]1Cc1cc(C2(O)CCC2)no1 [Example 2.56, (2R,3R,4S,5R,6R)-6-((3-(1-hydroxycyclobutyl)isoxazol-5-yl)methyl)-2-(hydroxymethyl)-5-methoxy-4-(4-(3,4,5-trifluorophenyl)-1H-1,2,3-triazol-1-yl)tetrahydro-2H-pyran-3-ol]	490 nM	1770 nM
CO[C@@H]1[C@@H](n2cc(-c3ccc(Cl)c(F)c3F)nn2)[C@@H](O)[C@@H](CO)O[C@@H]1Cc1cc(C2(O)CCC2)no1 [Example 2.59, (2R,3R,4S,5R,6R)-4-(4-(4-chloro-2,3-difluorophenyl)-1H-1,2,3-triazol-1-yl)-6-((3-(1-hydroxycyclobutyl)isoxazol-5-yl)methyl)-2-(hydroxymethyl)-5-methoxytetrahydro-2H-pyran-3-ol]	84 nM	2300 nM
CO[C@@H]1[C@@H](n2cc(-c3cc(F)c(F)c(F)c3)nn2)[C@@H](O)[C@@H](CO)O[C@@H]1Cc1cc(C(C)(C)O)no1 [Example 2.60, (2R,3R,4S,5R,6R)-2-(hydroxymethyl)-6-((3-(2-hydroxypropan-2-yl)isoxazol-5-yl)methyl)-5-methoxy-4-(4-(3,4,5-trifluorophenyl)-1H-1,2,3-triazol-1-yl)tetrahydro-2H-pyran-3-ol]	400 nM	7390 nM
CO[C@@H]1[C@@H](n2cc(-c3ccc(F)c(F)c3F)nn2)[C@@H](O)[C@@H](CO)O[C@@H]1Cc1cc(C(C)(C)O)no1 [Example 2.61, (2R,3R,4S,5R,6R)-2-(hydroxymethyl)-6-((3-(2-hydroxypropan-2-yl)isoxazol-5-yl)methyl)-5-methoxy-4-(4-(2,3,4-trifluorophenyl)-1H-1,2,3-triazol-1-yl)tetrahydro-2H-pyran-3-ol]	110 nM	780 nM

These reach a lower IC50 (human Gal-3 (hGal-3)). Values come first.

IC50 (human Gal-3 (hGal-3))	IC50 (human Gal-1 (hGal-1))	SMILES
47 nM	550 nM	CC(C)(C)c1cc(C[C@H]2O[C@H](CO)[C@H](O)[C@H](n3cc(-c4ccc(F)c(F)c4F)nn3)[C@H]2OCC(=O)O)on1 [Example 2.43, 2-(((2R,3R,4S,5R,6R)-2-((3-(tert-butyl)isoxazol-5-yl)methyl)-5-hydroxy-6-(hydroxymethyl)-4-(4-(2,3,4-trifluorophenyl)-1H-1,2,3-triazol-1-yl)tetrahydro-2H-pyran-3-yl)oxy)acetic acid]
40 nM	510 nM	CC1(c2cc(C[C@H]3O[C@H](CO)[C@H](O)[C@H](n4cc(-c5ccc(F)c(F)c5F)nn4)[C@H]3OCC(=O)O)on2)CC1 [Example 2.44, 2-(((2R,3R,4S,5R,6R)-5-hydroxy-6-(hydroxymethyl)-2-((3-(1-methylcyclopropyl)isoxazol-5-yl)methyl)-4-(4-(2,3,4-trifluorophenyl)-1H-1,2,3-triazol-1-yl)tetrahydro-2H-pyran-3-yl)oxy)acetic acid]
22 nM	2420 nM	Cc1ccc(-c2cn([C@H]3[C@@H](O)[C@@H](CO)O[C@H](Cc4cc(C(C)(C)C)no4)[C@@H]3OC(N)=O)nn2)c(F)c1F [Example 2.45, (2R,3R,4S,5R,6R)-2-((3-(tert-butyl)isoxazol-5-yl)methyl)-4-(4-(2,3-difluoro-4-methylphenyl)-1H-1,2,3-triazol-1-yl)-5-hydroxy-6-(hydroxymethyl)tetrahydro-2H-pyran-3-yl carbamate]
29 nM	890 nM	CC(C)(CO)c1cc(C[C@H]2O[C@H](CO)[C@H](O)[C@H](n3cc(-c4ccc(F)c(F)c4F)nn3)[C@H]2OCC(=O)O)on1 [Example 2.46, 2-(((2R,3R,4S,5R,6R)-5-hydroxy-2-((3-(1-hydroxy-2-methylpropan-2-yl)isoxazol-5-yl)methyl)-6-(hydroxymethyl)-4-(4-(2,3,4-trifluorophenyl)-1H-1,2,3-triazol-1-yl)tetrahydro-2H-pyran-3-yl)oxy)acetic acid]
53 nM	640 nM	CC(C)(C)c1cc(C[C@H]2O[C@H](CO)[C@H](O)[C@H](n3cc(-c4ccc(F)c(F)c4F)nn3)[C@H]2O)on1 [Example 2.49, (2R,3R,4R,5R,6R)-2-((3-(tert-butyl)isoxazol-5-yl)methyl)-6-(hydroxymethyl)-4-(4-(2,3,4-trifluorophenyl)-1H-1,2,3-triazol-1-yl)tetrahydro-2H-pyran-3,5-diol]
46 nM	> 100000 nM	CCNC(=O)O[C@@H]1[C@@H](n2cc(-c3ccc(C)c(F)c3F)nn2)[C@@H](O)[C@@H](CO)O[C@@H]1Cc1cc(C(C)(C)C)no1 [Example 2.51, (2R,3R,4S,5R,6R)-2-((3-(tert-butyl)isoxazol-5-yl)methyl)-4-(4-(2,3-difluoro-4-methylphenyl)-1H-1,2,3-triazol-1-yl)-5-hydroxy-6-(hydroxymethyl)tetrahydro-2H-pyran-3-yl ethylcarbamate]
53 nM	1050 nM	Cc1ccc(-c2cn([C@H]3[C@@H](O)[C@@H](CO)O[C@H](Cc4cc(C(C)(C)C)no4)[C@@H]3OCc3nccs3)nn2)c(F)c1F [Example 2.53, (2R,3R,4S,5R,6R)-6-((3-(tert-butyl)isoxazol-5-yl)methyl)-4-(4-(2,3-difluoro-4-methylphenyl)-1H-1,2,3-triazol-1-yl)-2-(hydroxymethyl)-5-(thiazol-2-ylmethoxy)tetrahydro-2H-pyran-3-ol]
52 nM	590 nM	Cc1ccc(-c2cn([C@H]3[C@@H](O)[C@@H](CO)O[C@H](Cc4cc(C(C)(C)C)no4)[C@@H]3OCc3cscn3)nn2)c(F)c1F [Example 2.54, (2R,3R,4S,5R,6R)-6-((3-(tert-butyl)isoxazol-5-yl)methyl)-4-(4-(2,3-difluoro-4-methylphenyl)-1H-1,2,3-triazol-1-yl)-2-(hydroxymethyl)-5-(thiazol-4-ylmethoxy)tetrahydro-2H-pyran-3-ol]
36 nM	2280 nM	CO[C@@H]1[C@@H](n2cc(-c3ccc(C)c(F)c3F)nn2)[C@@H](O)[C@@H](CO)O[C@@H]1Cc1cc(C(C)(C)O)no1 [Example 2.62, (2R,3R,4S,5R,6R)-4-(4-(2,3-difluoro-4-methylphenyl)-1H-1,2,3-triazol-1-yl)-2-(hydroxymethyl)-6-((3-(2-hydroxypropan-2-yl)isoxazol-5-yl)methyl)-5-methoxytetrahydro-2H-pyran-3-ol]
74 nM	1730 nM	CO[C@@H]1[C@@H](n2cc(-c3ccc(Cl)c(F)c3F)nn2)[C@@H](O)[C@@H](CO)O[C@@H]1Cc1cc(C(C)(C)O)no1 [Example 2.63, (2R,3R,4S,5R,6R)-4-(4-(4-chloro-2,3-difluorophenyl)-1H-1,2,3-triazol-1-yl)-2-(hydroxymethyl)-6-((3-(2-hydroxypropan-2-yl)isoxazol-5-yl)methyl)-5-methoxytetrahydro-2H-pyran-3-ol]
